According to ChEMBL document CHEMBL4393698, “Exploring the effect of chirality on the therapeutic potential of N-alkyl-deoxyiminosugars: anti-inflammatory response to Pseudomonas aeruginosa infections for application in CF lung disease” (Eur J Med Chem, 2019):
Calls of active or inactive are those of the source. No cut-off for these calls is given here.

Assays:
CuFi-1 [1] = test: Anti-inflammatory activity in human CuFi1 cells assessed as reduction in Pseudomonas aeruginosa PAO1-induced IL-8 mRNA expression level pretreated for 1 hr followed by Pseudomonas aeruginosa PAO1 challenge and measured after 4 hrs by RT-PCR analysis relative to control; format: functional
CuFi-1 [2] = test: Cytotoxicity against human CuFi1 cells assessed as reduction in cell viability incubated for 48 hrs by Muse cell analyser method; format: cell-based; settings: cufi-1, 48 h
CuFi-1 [3] = test: Anti-inflammatory activity in human CuFi1 cells assessed as reduction in Pseudomonas aeruginosa PAO1-induced IL-8 mRNA expression level pretreated for 1 hr followed by Pseudomonas aeruginosa PAO1 challenge and measured after 4 hrs by RT-PCR analysis; format: functional, cell-based
CuFi-1 [4] = test: Anti-inflammatory activity in human CuFi1 cells assessed as reduction in Pseudomonas aeruginosa PAO1-induced IL-8 mRNA expression level at 0.1 uM pretreated for 1 hr followed by Pseudomonas aeruginosa PAO1 challenge and measured after 4 hrs by RT-PCR analysis relative to control; format: functional; parameters: scale not given: the % may be the effect or the level left
CuFi-1 [5] = test: Induction of apoptosis in human CuFi1 cells incubated for 48 hrs by Muse Annexin V based cell counter assay; settings: cufi-1, 48 h
[6] = target: T1, Lysosomal acid glucosylceramidase (Homo sapiens) (UniProt P04062); settings: SH-SY5Y, 1 nM
T1 sequence (whole entry): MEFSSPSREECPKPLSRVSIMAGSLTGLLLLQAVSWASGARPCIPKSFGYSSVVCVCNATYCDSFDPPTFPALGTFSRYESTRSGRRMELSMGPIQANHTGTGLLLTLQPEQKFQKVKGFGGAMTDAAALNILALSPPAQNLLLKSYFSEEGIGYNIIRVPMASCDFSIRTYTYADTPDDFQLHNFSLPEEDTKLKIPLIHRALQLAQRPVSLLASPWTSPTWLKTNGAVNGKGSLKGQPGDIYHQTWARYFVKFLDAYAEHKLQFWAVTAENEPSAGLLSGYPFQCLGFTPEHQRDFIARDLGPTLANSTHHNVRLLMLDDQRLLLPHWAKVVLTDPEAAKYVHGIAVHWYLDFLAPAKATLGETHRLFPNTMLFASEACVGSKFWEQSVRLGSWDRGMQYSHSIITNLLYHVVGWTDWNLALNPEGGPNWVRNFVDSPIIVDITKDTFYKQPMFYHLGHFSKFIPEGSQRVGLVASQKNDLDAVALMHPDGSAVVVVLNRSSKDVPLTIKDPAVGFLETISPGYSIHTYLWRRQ

[7] = target: T2, Beta-glucosidase (Homo sapiens) (UniProt Q9HCG7); settings: SH-SY5Y, 1 nM
T2 sequence (whole entry): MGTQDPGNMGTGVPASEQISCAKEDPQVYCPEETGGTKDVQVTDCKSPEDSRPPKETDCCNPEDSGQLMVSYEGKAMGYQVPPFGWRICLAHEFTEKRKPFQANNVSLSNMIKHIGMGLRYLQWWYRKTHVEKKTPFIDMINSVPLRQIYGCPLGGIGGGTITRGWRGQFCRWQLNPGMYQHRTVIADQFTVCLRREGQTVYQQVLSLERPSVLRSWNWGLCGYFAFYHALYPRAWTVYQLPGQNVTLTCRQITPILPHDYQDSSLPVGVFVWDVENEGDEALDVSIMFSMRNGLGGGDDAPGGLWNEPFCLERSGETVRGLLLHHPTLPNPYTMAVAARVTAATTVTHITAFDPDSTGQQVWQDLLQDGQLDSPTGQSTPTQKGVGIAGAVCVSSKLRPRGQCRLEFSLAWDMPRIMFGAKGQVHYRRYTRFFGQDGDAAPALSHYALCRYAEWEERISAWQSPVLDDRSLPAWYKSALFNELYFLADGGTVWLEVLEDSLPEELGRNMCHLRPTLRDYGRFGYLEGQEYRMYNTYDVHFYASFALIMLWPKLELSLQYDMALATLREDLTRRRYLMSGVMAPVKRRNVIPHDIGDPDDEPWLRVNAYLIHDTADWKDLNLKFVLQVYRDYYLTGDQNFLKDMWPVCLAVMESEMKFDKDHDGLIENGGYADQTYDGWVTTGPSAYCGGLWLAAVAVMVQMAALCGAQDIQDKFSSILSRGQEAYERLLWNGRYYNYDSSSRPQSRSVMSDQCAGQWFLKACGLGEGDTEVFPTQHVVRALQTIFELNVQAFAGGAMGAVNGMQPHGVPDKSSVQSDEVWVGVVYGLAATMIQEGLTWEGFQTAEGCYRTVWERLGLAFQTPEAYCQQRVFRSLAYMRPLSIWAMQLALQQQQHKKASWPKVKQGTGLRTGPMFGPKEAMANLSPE

Beta-glucosidase = target: T3, Beta-glucosidase (Homo sapiens, UniProt Q9HCG7)
T3 sequence (Q9HCG7 whole entry): T2 sequence (whole entry)

Pseudomonas aeruginosa [8] = test: Anti-inflammatory activity in Pseudomonas aeruginosa PAO1 infected C57Bl/6NCr mouse assessed as reduction in bacterial CFU in lungs at 10 mg/kg, po administered via gavage pretreated for 1 to 24 hrs followed by Pseudomonas aeruginosa PAO1 challenge and measured after 6 hrs; format: functional, organism-based
Pseudomonas aeruginosa [9] = test: Anti-inflammatory activity in Pseudomonas aeruginosa PAO1 infected C57Bl/6NCr mouse assessed as reduction in amount of neutrophils in lungs at 100 mg/kg, po administered via gavage pretreated for 1 to 24 hrs followed by Pseudomonas aeruginosa PAO1 challenge and measured after 6 hrs; format: functional, organism-based
Pseudomonas aeruginosa [10] = test: Anti-inflammatory activity in Pseudomonas aeruginosa PAO1 infected C57Bl/6NCr mouse assessed as increase in alveolar macrophages in lungs at 10 mg/kg, po administered via gavage pretreated for 1 to 24 hrs followed by Pseudomonas aeruginosa PAO1 challenge and measured after 6 hrs; format: functional, organism-based
Pseudomonas aeruginosa [11] = test: Anti-inflammatory activity in Pseudomonas aeruginosa PAO1 infected C57Bl/6NCr mouse assessed as reduction in bacterial CFU in BAL at 10 mg/kg, po administered via gavage pretreated for 1 to 24 hrs followed by Pseudomonas aeruginosa PAO1 challenge and measured after 6 hrs; format: functional, organism-based
[12] = Toxicity in Pseudomonas aeruginosa PAO1 infected C57Bl/6NCr mouse assessed as change in body weight at 100 mg/kg, po administered via gavage pretreated for 1 to 24 hrs followed by Pseudomonas aeruginosa PAO1 challenge and measured after 6 hrs; format: organism-based; settings: in vivo
Homo sapiens = species on record: Homo sapiens; test: Anti-inflammatory activity in human Bronchial epithelial cells assessed as reduction in Pseudomonas aeruginosa PAO1-induced IL-8 mRNA expression level at 10 nM pretreated for 1 hr followed by Pseudomonas aeruginosa PAO1 challenge and measured after 4 hrs by RT-PCR analysis relative to control; format: functional
[13] = Toxicity in Pseudomonas aeruginosa PAO1 infected C57Bl/6NCr mouse assessed as change in body weight at 10 to 100 mg/kg, po administered via gavage pretreated for 1 to 24 hrs followed by Pseudomonas aeruginosa PAO1 challenge and measured after 6 hrs; format: organism-based; settings: in vivo
Pseudomonas aeruginosa [14] = test: Anti-inflammatory activity in Pseudomonas aeruginosa PAO1 infected C57Bl/6NCr mouse assessed as reduction in amount of neutrophils recruited in BAL at 10 mg/kg, po administered via gavage pretreated for 1 to 24 hrs followed by Pseudomonas aeruginosa PAO1 challenge and measured after 6 hrs; format: functional, organism-based
Pseudomonas aeruginosa [15] = test: Anti-inflammatory activity in Pseudomonas aeruginosa PAO1 infected C57Bl/6NCr mouse assessed as reduction in amount of bacteria recovered in airway at 10 mg/kg, po administered via gavage pretreated for 1 to 24 hrs followed by Pseudomonas aeruginosa PAO1 challenge and measured after 6 hrs; format: functional, organism-based
Pseudomonas aeruginosa [16] = test: Anti-inflammatory activity in Pseudomonas aeruginosa PAO1 infected C57Bl/6NCr mouse assessed as reduction in bacteria detected in lungs dosed orally via gavage pretreated for 1 to 24 hrs followed by Pseudomonas aeruginosa PAO1 challenge and measured after 6 hrs; format: functional, organism-based

In the case of CCCCCCCCCN1CC(O)C(O)C(O)C1CO (racemic), the Imax (CuFi-1 [1]) is reported as 12%, the Activity (CuFi-1 [2]) is reported as “Non-Toxic” and the IC50 (CuFi-1 [3]) is reported as 0.6 nM. For the same molecule, the Activity (CuFi-1 [4]) was 22% and the Activity (CuFi-1 [5]) was “Non-Toxic”.
CCCCCCOCCCCCN1C[C@H](O)[C@@H](O)[C@H](O)[C@H]1CO gave an Imax [6] of 100%, an Imax [7] of 100% and an IC50 (Beta-glucosidase) of 0.4 nM.
In the case of CCCCCCCCCN1C[C@H](O)[C@@H](O)[C@H](O)[C@H]1CO, the Activity (CuFi-1 [2]) is reported as “Non-Toxic”, the Activity (CuFi-1 [4]) is reported as 8% and the Activity (CuFi-1 [5]) is reported as “Non-Toxic”.
With CCCCN1CC(O)C(O)C(O)C1CO (racemic) the Activity (Pseudomonas aeruginosa [8]) was “Active”, the Imax (CuFi-1 [1]) was 36% and the Activity (Pseudomonas aeruginosa [9]) was “inactive”. For the same molecule, the Activity (CuFi-1 [2]) was “Non-Toxic”, the Activity (Pseudomonas aeruginosa [10]) was “Active” and the IC50 (CuFi-1 [3]) was 0.95 nM. For the same molecule, the Activity (Pseudomonas aeruginosa [11]) was “Active”, the Activity (CuFi-1 [4]) was 30% and the Activity [12] was “Non-Toxic”. For the same molecule, the Activity (Homo sapiens) was “Active” and the Activity (CuFi-1 [5]) was “Non-Toxic”.
For CCCCN1C[C@H](O)[C@@H](O)[C@H](O)[C@H]1CO, the Imax (CuFi-1 [1]) was 50%, the Activity (CuFi-1 [2]) was “Non-Toxic” and the Activity [13] was “Non-Toxic”. The IC50 (CuFi-1 [3]) was 2000 nM and the Activity (CuFi-1 [5]) was “Non-Toxic”.
For OCC1C(O)C(O)C(O)CN1CCCCCOCC12CC3CC(CC(C3)C1)C2 (racemic), the Imax (CuFi-1 [1]) was 29%, the Activity (CuFi-1 [2]) was “Non-Toxic” and the IC50 (CuFi-1 [3]) was 1.84 nM. For the same molecule, the Activity (CuFi-1 [4]) was 42%, the Activity (Homo sapiens) was “Active” and the Activity (CuFi-1 [5]) was “Non-Toxic”.
With CCCCN1C[C@@H](O)[C@H](O)[C@@H](O)[C@@H]1CO the Activity (Pseudomonas aeruginosa [14]) was “Active”, the Activity (Pseudomonas aeruginosa [15]) was “Active” and the Activity (CuFi-1 [2]) was “Non-Toxic”. The Activity [13] was “Non-Toxic”, the Activity (Pseudomonas aeruginosa [16]) was “inactive” and the Activity (CuFi-1 [4]) was “<=20%”. For the same molecule, the Activity (CuFi-1 [5]) was “Non-Toxic”.
With CCCCCCOCCCCCN1CC(O)C(O)C(O)C1CO (racemic) the Imax [7] was 100% and the IC50 (Beta-glucosidase) was 1 nM.
In the case of OC[C@H]1[C@H](O)[C@@H](O)[C@H](O)CN1CCCCCOCC12CC3CC(CC(C3)C1)C2, the Activity (CuFi-1 [2]) is reported as “Non-Toxic”, the Activity (CuFi-1 [4]) is reported as 29% and the Activity (CuFi-1 [5]) is reported as “Non-Toxic”.
With OC[C@@H]1[C@@H](O)[C@H](O)[C@@H](O)CN1CCCCCOCC12CC3CC(CC(C3)C1)C2 the Activity (CuFi-1 [2]) was “Non-Toxic”, the IC50 (CuFi-1 [3]) was 1.84 nM and the Activity (CuFi-1 [5]) was “Non-Toxic”.
For CCCCCCCCCN1C[C@@H](O)[C@H](O)[C@@H](O)[C@@H]1CO, the Activity (CuFi-1 [2]) was “Non-Toxic”, the Activity (CuFi-1 [4]) was 16% and the Activity (CuFi-1 [5]) was “Non-Toxic”.
CCCCCCOCCCCCN1C[C@@H](O)[C@H](O)[C@@H](O)[C@@H]1CO gave an Imax [6] of 65%, an Imax [7] of 100% and an IC50 (Beta-glucosidase) of 36700 nM.
